Laboratory results from patent US20060171944A1, “N-formyl peptide receptor mediation of platelet chemotaxis toward injured cells and activation of immune response” (priority 2002, published 2006).

What was measured:
platelet FPR = molecular target: T1, platelet FPR (Homo sapiens, UniProt P21462); assay: Inhibition of platelet chemotaxis to fMLF in transwell migration assay; assay type: cell-based; conditions: 1 U and 10 U; non-activated and thrombin-activated platelets; P<0.001
T1 construct: endogenous in cells
T1 sequence (P21462 1-350): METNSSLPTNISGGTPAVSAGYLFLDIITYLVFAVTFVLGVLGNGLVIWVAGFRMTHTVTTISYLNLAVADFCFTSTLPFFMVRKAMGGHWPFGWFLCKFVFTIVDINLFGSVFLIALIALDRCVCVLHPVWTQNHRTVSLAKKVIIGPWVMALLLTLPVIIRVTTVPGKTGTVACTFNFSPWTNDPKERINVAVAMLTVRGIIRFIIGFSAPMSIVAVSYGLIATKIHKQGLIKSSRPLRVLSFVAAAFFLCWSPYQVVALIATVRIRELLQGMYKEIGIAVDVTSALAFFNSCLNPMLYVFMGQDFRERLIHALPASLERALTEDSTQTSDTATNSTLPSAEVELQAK
Method: In order to further confirm the specificity of the chemotactic response to N-formyl peptide binding of the FPR, platelet FPR was inhibited by several methods to establish its functional requirement for platelet chemotaxis. Platelets were pretreated with an FPR-specific antibody (α-FPR) capable of blocking the binding of N-formyl peptides to the FPR receptor, prior to the transwell migration assay. […] Additionally, platelets were treated with pertussis toxin, a specific inhibitor of the a-subunit of members of the Gi/o class of G-proteins required for FPR activation.
Platelet migration was assessed using a 96-well ChemoTx® microplate (Neuro Probe, Gaithersburg Md.). For all chemotaxis experiments, different concentrations of stimulants were placed in the bottom wells of the microplate and the filter was positioned (2 μm pore size). The cell suspension was seeded onto the top of the filter (30 μl) and the microplates were incubated for 2 hrs at 37° C. For all chemokinesis experiments, different concentrations of stimulants were placed in the bottom wells of the microplate and the filter was positioned. […] The filter was then carefully removed and the migrated cells were counted by light microscopy. Results are expressed as the mean value (±SD) of total migrated cells, in triplicate samples, and are taken from five experiments independent.

human platelets = assay: Platelet chemotaxis toward ischemic/reperfused human aortic endothelial cells; assay type: cell-based; conditions: thrombin-activated platelets
Method: Primary human aortic endothelial cells were plated in 0.2% gelatin (Sigma) coated 96-well ChemoTx microplates and allowed to recover for 48 hours. Before the plate was placed in the modular incubator chamber (Billups-Rothenberg Inc.; Del Mar, Calif.) the media was replaced with serum-free media containing 10 mM Hepes. The plate was placed on ice and put into the air tight modular incubator chamber and flushed with a gas mixture of 5% CO2 and 95% N2 for 90 min to induce ischemia. The cell culture was then returned to a normoxic environment of atmospheric air/5% CO2 to simulate reperfusion, and allowed to recover for 4 hours in a cell culture incubator. Chemotaxis experiments were then performed.
In particular, studies were performed to determine whether endogenous danger signals released by tissues undergoing ischemia/reperfusion cell injury induced platelet chemotaxis. Primary human aortic cells, plated in a 96-well ChemoTx plate NeuroProbeInc. Gaithersburg, Md. were placed on ice and put into an air tight modular incubator chamber that was flushed with a gas mixture of 5% CO2 and 95% N2 for 90 min to induce ischemia. The cell culture was then returned to a normoxic environment of atmospheric air/5% CO2 and allowed to recover for 4 hours in a cell culture incubator at 37° C.

Question: With pertussis toxin as the substance, how does the “effect of platelet treatment with pertussis toxin on migration to fMLF” value (platelet FPR) read?
Answer: significantly decreased migration

Question: What about the “effect of platelet treatment on chemotaxis toward ischemic aortic endothelial cells” value (human platelets) of the same substance?
Answer: decreased chemotaxis
